# Test results as given in patent US9670482B2, “Multispecific peptides” (BICYCLE THERAPEUTICS LIMITED, priority 2009, dated 2017).
# Residues, ends and D or L forms follow the SMILES beside them.
# Assays:
# Assay type in all cases: in vitro ADME
# Subtilisin = assay: Peptide conjugate digestion with Subtilisin; conditions: 37° C. for 1 hr
# Experimental: (§1) Linear peptides (PK15 and CG4L1-PK15L1) were first treated with iodoacetamide prior to digestion studies. The peptides (ca 3-4 mg) were purified by HPLC (semi-prep Proteo column as described in general methods), and the HPLC fraction (ca 3 ml) was neutralised with an equal volume of 50 mM ammonium bicarbonate. […] The reaction mixture was concentrated (rotary evaporator) and re-purified by HPLC as above.
# (§2) Peptides (linear and conjugates) were dissolved in water at a concentration of 1 mg/ml, giving an effective concentration of −0.5 mM stock solutions. 2 μl of peptide conjugates (˜30 μM in reactions depending on actual molecular weight) where dissolved in reaction buffer (see below) in a total reaction volume of 30 μl, followed by the protease, and samples were incubated at 37° C. for 1 hr. 10 μl aliquots were quenched into 20 μl of 10% dichloroacetic acid in MeCN/H2O (1:1) and stored at −20° C. for 30 minutes, centrifuged at 4° C. (13000 rpm) for 5 minutes and then spotted onto MALDI-TOF mass spectrometer plate for analysis.
# (§3) All reactions at 37° C. Cathepsin G and kalikrein reactions were carried out in 10 mM Tris pH 7.4, 150 mM NaCl, 10 mM MgCl2, 1 mM CaCl2, 0.1% BSA, 0.01% Triton X100, 5% DMSO. Chymotrypsin reactions were carried out in 100 mM Tris pH 7.4, 10 mM CaCl2. Pronase and proteinase K reactions were carried out in 100 mM Tris pH 7.4, 0.5% SDS. Subtilisin reactions were carried out in 50 mM KH2PO4 pH 7.5. Trypsin reactions were carried out in 67 mM sodium phosphate pH 7.6. Reaction conditions with serum involve dissolving the peptide in 1×PBS (total volume 24 μl) and 6 μl of human serum added to the reaction.
# Pronase = assay: Peptide conjugate digestion with Pronase; parameters: key to the marks not given beside the values; conditions: 37° C. for 1 hr
# Experimental: as §1, §2, §3
# Proteinase K = Proteinase K (Parengyodontium album, UniProt P06873); assay: Peptide conjugate digestion with Proteinase K; parameters: key to the marks not given beside the values; conditions: 37° C. for 1 hr
# Experimental: as §1, §2, §3
# Kalikrein = Kalikrein (Homo sapiens, UniProt P03952); assay: Peptide conjugate digestion with Kalikrein; parameters: digestion with Kalikrein: key to the marks not given beside the values; conditions: for digestion with Kalikrein: 37° C. for 1 hr
# Experimental: as §1, §2, §3
# Chymotrypsin = assay: Peptide conjugate digestion with Chymotrypsin; conditions: 37° C. for 1 hr
# Experimental: as §1, §2, §3
# Cathepsin G = biological target: T1, Cathepsin G (Homo sapiens, UniProt P08311); assay: Peptide conjugate digestion with Cathepsin G; parameters: key to the marks not given beside the values; conditions: 37° C. for 1 hr
# T1 sequence (P08311 21-244): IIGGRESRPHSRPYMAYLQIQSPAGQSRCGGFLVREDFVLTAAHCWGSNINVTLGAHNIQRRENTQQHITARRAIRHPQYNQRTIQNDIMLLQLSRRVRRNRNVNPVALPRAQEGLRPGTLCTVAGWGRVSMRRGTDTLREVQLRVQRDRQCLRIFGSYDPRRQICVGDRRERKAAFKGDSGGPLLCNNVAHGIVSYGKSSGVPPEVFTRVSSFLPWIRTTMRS
# Experimental: as §1, §2, §3
# Resistance to serum = conditions: 37° C., human serum in PBS; later times not yet tested
# Experimental: as §2, §3
# Trypsin = assay: Peptide conjugate digestion with Trypsin; conditions: 37° C. for 1 hr
# Experimental: as §1, §2, §3
# Sequence of Kalikrein (P03952 20-638): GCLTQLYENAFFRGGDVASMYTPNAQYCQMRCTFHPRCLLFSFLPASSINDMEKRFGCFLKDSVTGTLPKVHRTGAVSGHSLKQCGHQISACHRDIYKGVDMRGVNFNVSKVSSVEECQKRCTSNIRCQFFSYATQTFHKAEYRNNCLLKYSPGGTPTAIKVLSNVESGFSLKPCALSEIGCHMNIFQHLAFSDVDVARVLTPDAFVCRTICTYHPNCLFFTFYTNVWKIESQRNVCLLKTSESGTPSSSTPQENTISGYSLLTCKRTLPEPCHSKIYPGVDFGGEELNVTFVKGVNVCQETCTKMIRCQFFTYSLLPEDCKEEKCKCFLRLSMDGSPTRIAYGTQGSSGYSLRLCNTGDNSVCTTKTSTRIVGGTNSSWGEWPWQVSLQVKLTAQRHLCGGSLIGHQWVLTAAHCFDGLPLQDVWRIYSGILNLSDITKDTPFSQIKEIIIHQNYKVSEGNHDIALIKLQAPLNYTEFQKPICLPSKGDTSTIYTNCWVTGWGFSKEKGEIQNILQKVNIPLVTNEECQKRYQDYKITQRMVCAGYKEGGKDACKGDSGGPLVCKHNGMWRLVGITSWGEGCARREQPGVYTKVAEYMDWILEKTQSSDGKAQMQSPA
# Sequence of Proteinase K (P06873 106-384): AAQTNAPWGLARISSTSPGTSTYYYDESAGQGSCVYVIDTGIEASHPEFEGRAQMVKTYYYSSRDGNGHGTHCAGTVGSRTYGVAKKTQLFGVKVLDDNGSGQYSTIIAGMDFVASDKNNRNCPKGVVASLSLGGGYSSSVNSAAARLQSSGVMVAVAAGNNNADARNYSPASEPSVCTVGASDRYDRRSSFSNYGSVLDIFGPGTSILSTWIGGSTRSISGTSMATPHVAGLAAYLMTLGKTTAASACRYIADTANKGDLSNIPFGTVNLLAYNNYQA
structure (smiles),measurement,setting,value
"CC(C)C[C@@H]1NC(=O)[C@H](C)NC(=O)[C@H](CCC(=O)O)NC(=O)[C@H](CC(=O)O)NC(=O)[C@H](C)NC(=O)[C@@H]2CCCN2C(=O)[C@@H]2CSCc3cc(cc(c3)CSC[C@@H](C(=O)NCC(=O)O)NC1=O)CSC[C@H](NC(=O)[C@H](C)N)C(=O)N[C@@H](CO)C(=O)N[C@@H](CC(=O)O)C(=O)N[C@@H](CCCNC(=N)N)C(=O)N[C@@H](Cc1ccccc1)C(=O)N[C@@H](CCCNC(=N)N)C(=O)N[C@@H](CC(N)=O)C(=O)N2 [PK15L1-PK15L2 bicyclic, reference compound] (HELM PEPTIDE1{A.C.S.D.R.F.R.N.C.P.A.D.E.A.L.C.G}|CHEM1{[c1c(C[*:1])cc(C[*:3])cc1C[*:2]]}$PEPTIDE1,CHEM1,2:R3-1:R1|PEPTIDE1,CHEM1,9:R3-1:R2|PEPTIDE1,CHEM1,16:R3-1:R3$$$V2.0)",digestion with Subtilisin,Subtilisin; 0.009 μg enzyme per reaction,+++
same,digestion with Subtilisin,Subtilisin; 9 μg enzyme per reaction,−
same,digestion with Pronase,Pronase; 0.01 μg enzyme per reaction,+++
same,digestion with Pronase,Pronase; 0.1 μg enzyme per reaction,+++
same,digestion with Proteinase K,Proteinase K; 0.01 μg enzyme per reaction,+++
same,digestion with Proteinase K,Proteinase K; 0.1 μg enzyme per reaction,+++
same,digestion with Proteinase K,Proteinase K; 1 μg enzyme per reaction,+++
same,digestion with Kalikrein,Kalikrein; 0.01 μg enzyme per reaction,+++
same,digestion with Kalikrein,Kalikrein; 0.1 μg enzyme per reaction,+++
same,digestion with Kalikrein,Kalikrein; 1 μg enzyme per reaction,+++
same,factor by which the TBMB conjugate is more resistant than the linear peptide to attack by kallikrein,Kalikrein; by comparing different concentrations of enzyme,about 100 fold
same,digestion with Chymotrypsin,Chymotrypsin; 0.01 μg enzyme per reaction,+++
same,digestion with Chymotrypsin,Chymotrypsin; 0.1 μg enzyme per reaction,+++
same,digestion with Chymotrypsin,Chymotrypsin; 1 μg enzyme per reaction,+++
same,digestion with Cathepsin G,Cathepsin G; 0.01 μg enzyme per reaction,+++
same,digestion with Cathepsin G,Cathepsin G; 0.1 μg enzyme per reaction,+++
same,time for which proteolysis in serum is resisted,Resistance to serum,at least 48 hours
same,digestion with Trypsin,Trypsin; 0.01 μg enzyme per reaction,+++
same,digestion with Trypsin,Trypsin; 10 μg enzyme per reaction,−
